The values that follow come from the supplement of paper PMC11003180.

Common to all, as to test: drug sensitivity score (DSS) from 5-dose viability curve (DSS (area-based score, 0 = no response)); higher = more sensitive (stronger viability inhibition); extreme values may be limits of the assay
Experiment [1] relates to MDCK wild-type - doxycycline. Conditions: doxycycline: none; 72 h. Summed up:
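Drug sensitivity scores came from Breeze pipeline dose-response fits of CellTiter-Glo luminescence, scaled per plate between vehicle and positive controls. The assay used parental MDCK cells without doxycycline at 2000 cells/well, exposed for 72 h to 528 oncology drugs at five doses (1-10,000 nM).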

Experiment [2] relates to MDCK p60AmotL2-inducible + doxycycline (p60AmotL2 expressing). Conditions: doxycycline: 10 ng/mL; 72 h. In outline: (§1)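 Pre-spotted 384-well plates held 528 oncology drugs, each at five doses from 1 to 10,000 nM. Parental and doxycycline-inducible MDCK cells, exposed beforehand to 10 ng/mL doxycycline in the medium, were added at 2000 cells/well and incubated 72 h at 37 °C. Viability came from CellTiter-Glo luminescence normalized per plate to vehicle and positive controls, and the Breeze pipeline fitted dose-response curves to give drug sensitivity scores.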

In experiment [3] the test system is MDCK wild-type + doxycycline. The settings on record: doxycycline: 10 ng/mL; 72 h. In outline: as §1

With `O=c1[nH]c(=O)n([C@H]2C[C@H](O)[C@@H](CO)O2)cc1F` [Floxuridine], the drug sensitivity score in experiment [1] was 18.2; in experiment [2], 22.7; in experiment [3], 21.7.
On to `Nc1nc(F)nc2c1ncn2[C@@H]1O[C@H](CO)[C@@H](O)[C@@H]1O` [Fludarabine], for which the drug sensitivity score in experiment [1], in experiment [2] and in experiment [3] was 0 throughout.
`O=c1[nH]cc(F)c(=O)[nH]1` [Fluorouracil]: the drug sensitivity score in experiment [1] was determined as 8.6; in experiment [2], 9.2; in experiment [3], 9.7.
In the case of `CC(C)C(=O)Nc1ccc([N+](=O)[O-])c(C(F)(F)F)c1` [Flutamide], the drug sensitivity score in experiment [1], in experiment [2] and in experiment [3] was 0 throughout.
With `COc1cc2c(Oc3ccc(NC(=O)C4(C(=O)Nc5ccc(F)cc5)CC4)cc3F)ccnc2cc1OCCCN1CCOCC1` [Foretinib], the drug sensitivity score amounted to 0 in experiment [1], 2.8 in experiment [2] and 1.2 in experiment [3].
As for `COc1cc(Nc2ncc(F)c(Nc3ccc4c(n3)N(COP(=O)(O)O)C(=O)C(C)(C)O4)n2)cc(OC)c1OC` [Fostamatinib], the figures for the drug sensitivity score in experiment [1], in experiment [2] and in experiment [3] were 0.7, 4.6 and 1.8, respectively.
Turning to `C[C@]12CC[C@@H]3c4ccc(O)cc4C[C@@H](CCCCCCCCC[S+]([O-])CCCC(F)(F)C(F)(F)F)[C@H]3[C@@H]1CC[C@@H]2O` (stereo not given in full) [Fulvestrant], the drug sensitivity score in experiment [1], in experiment [2] and in experiment [3] was 0 throughout.
Regarding `CC1(C)OCCn2c1nc1c(N3CCOCC3)nc(-c3cnc(N)nc3)nc12` [GDC-0084], the drug sensitivity score in experiment [1] was 7; in experiment [2] it was 14.9; in experiment [3] it was 10.2.
Turning to `O=C(NOCCO)c1ccc2cncn2c1Nc1ccc(I)cc1F` [GDC-0623], the drug sensitivity score was 1.4 in experiment [1], 0.3 in experiment [2] and 0 in experiment [3].
In the case of `C[C@H]1CN(C2COC2)CCN1c1ccc(Nc2cc(-c3ccnc(N4CCn5c(cc6c5CC(C)(C)C6)C4=O)c3CO)cn(C)c2=O)nc1` [GDC-0853], the drug sensitivity score in experiment [1], in experiment [2] and in experiment [3] was 0 each time.
As for `O[C@H](C[C@H]1c2c(F)cccc2-c2cncn21)[C@H]1CC[C@H](O)CC1` [GDC-0919], the drug sensitivity score in experiment [1], in experiment [2] and in experiment [3] was 0 each time.
As to `CNc1nc(Nc2cn(C(C)(C)C#N)nc2C)ncc1C(F)(F)F` [GNE-0877], the drug sensitivity score in experiment [1], in experiment [2] and in experiment [3] was 0 throughout.
As for `CCNc1nc(Nc2cc(F)c(C(=O)N3CCOCC3)cc2OC)ncc1C(F)(F)F` [GNE-7915], the drug sensitivity score in experiment [1], in experiment [2] and in experiment [3] was 0 each time.
As to `CCCc1cc(C)[nH]c(=O)c1CNC(=O)c1cc(-c2ccnc(N3CCN(C)CC3)c2)cc2c1cnn2C(C)C` [GSK343], the drug sensitivity score in experiment [1], in experiment [2] and in experiment [3] was 0 throughout.
Take `CCCOc1ccn2c(C(C)=O)cc(-c3ccccc3S(C)(=O)=O)c2c1` [GSK2801]: the drug sensitivity score in experiment [1], in experiment [2] and in experiment [3] was 0 throughout.
On to `CCOC(=O)CCNc1cc(N2CCc3ccccc3CC2)nc(-c2ccccn2)n1` [GSK-J4], for which the drug sensitivity score stood at 13.7 in experiment [1], 3.9 in experiment [2] and 3.8 in experiment [3].
For `C[C@@H]1C=C2C(=O)O[C@@H]3CC[C@H](C1)[C@]23O` [Galiellalactone] the same measures were 4.3, 2.5 and 2.
For `Cc1cccc(-c2nn3c(c2-c2ccnc4ccc(C(N)=O)cc24)CCC3)n1` [Galunisertib], the drug sensitivity score in experiment [1], in experiment [2] and in experiment [3] was 0 each time.
Regarding `Cc1cc(Nc2cc(CN3CCOCC3)c3nc(C)c(Cc4ccc(Cl)cc4F)n3n2)n[nH]1` [Gandotinib], the drug sensitivity score in experiment [1] is 6.3; in experiment [2], 8.2; in experiment [3], 5.5.
The like results for `CC(C)c1cc(-c2n[nH]c(=O)n2-c2ccc3c(ccn3C)c2)c(O)cc1O` [Ganetespib] were, in that order, 16.7, 19.3 and 17.4.
For `CN(C)C1CCN(C(=O)c2ccc(NC(=O)Nc3ccc(-c4nc(N5CCOCC5)nc(N5CCOCC5)n4)cc3)cc2)CC1` [Gedatolisib] the same measures were 0, 5.2 and 1.9.
For `COc1cc2ncnc(Nc3ccc(F)c(Cl)c3)c2cc1OCCCN1CCOCC1` [Gefitinib] the same measures were 3.2, 17.9 and 1.5.
In the case of `Nc1ccn([C@@H]2O[C@H](CO)[C@@H](O)C2(F)F)c(=O)n1` [Gemcitabine], the figures for the drug sensitivity score in experiment [1], in experiment [2] and in experiment [3] were 2.2, 7.7 and 5.5, respectively.
The like results for `CCc1nc(C(N)=O)c(Nc2ccc(N3CCC(N4CCN(C)CC4)CC3)c(OC)c2)nc1NC1CCOCC1` [Gilteritinib] were, in that order, 0.9, 1 and 0.1.
For `CCN(CC)Cc1ccc2cc(COC(=O)Nc3ccc(C(=O)NO)cc3)ccc2c1` [Givinostat] the same measures were 4.8, 7.1 and 4.5.
Consider `CN1CC[C@@H](NC(=O)Nc2ccc(C#N)cc2)C[C@@H]1c1nc2ccccc2[nH]1` [Glasdegib], for which the drug sensitivity score in experiment [1], in experiment [2] and in experiment [3] was 0 in each case.
Consider `COCCNCc1ccc(-c2cc3nccc(Oc4ccc(NC(=S)NC(=O)Cc5ccc(F)cc5)cc4F)c3s2)nc1` [Glesatinib], for which the drug sensitivity score came to 0 in experiment [1], 0.4 in experiment [2] and 0 in experiment [3].
As for `CN1CCN(C2CCN(C(=O)Nc3cc(Oc4ccc(NC(=O)C5(C(=O)Nc6ccc(F)cc6)CC5)c(F)c4)ccn3)CC2)CC1` [Golvatinib], the drug sensitivity score was determined as 0 in experiment [1], 1 in experiment [2] and 0 in experiment [3].
Regarding `CC(C)C[C@H](NC(=O)[C@@H](COC(C)(C)C)NC(=O)[C@H](Cc1ccc(O)cc1)NC(=O)[C@H](CO)NC(=O)[C@H](Cc1c[nH]c2ccccc12)NC(=O)[C@H](Cc1cnc[nH]1)NC(=O)[C@@H]1CCC(=O)N1)C(=O)N[C@@H](CCCNC(=N)N)C(=O)N1CCC[C@H]1C(=O)NNC(N)=O` [Goserelin], the drug sensitivity score in experiment [1], in experiment [2] and in experiment [3] was 0 in each case.
Consider `O=S(=O)(c1cccc2c(O)nccc12)N1CCCNCC1` [Hydroxyfasudil], for which the drug sensitivity score in experiment [1], in experiment [2] and in experiment [3] was 0 throughout.
